Test results taken from US20210379066A1, “COMBINATIONS OF POSITIVE ALLOSTERIC MODULATORS AND NICOTINIC ACETYLCHOLINE RECEPTOR AGONISTS FOR TREATING OCULAR CONDITIONS” (Oyster Point Pharma, Inc., priority 2018, published 2021).
“Also recorded” adds a separate entry of the source. Structures can show the parent of a compound that is named as a salt.

Assays:
Assay type in all cases: cell-based
[1] = target: T1, human alpha4beta2 nAChRs (Homo sapiens, UniProt P17787+P43681); assay: Positive allosteric modulation of agonist-evoked currents, two-electrode voltage clamp in Xenopus oocytes (Example 1); settings: for positive allosteric modulator activity in the presence of compound 1 hemi-galactarate dihydrate: 1 μM PAM; for dependence of potentiation on the order of agonist and PAM application: agonist compound 1 hemi-galactarate dihydrate; for maximal current evoked by compound 1 hemi-galactarate dihydrate / shift of the concentration activation curve to compound 1 hemi-galactarate dihydrate: presence vs absence of 1 μM PAM
T1 construct: expressed in transfected cells; host or cells: Xenopus laevis oocytes (cDNA injection)
T1 sequence (P43681 29-627 limits assumed): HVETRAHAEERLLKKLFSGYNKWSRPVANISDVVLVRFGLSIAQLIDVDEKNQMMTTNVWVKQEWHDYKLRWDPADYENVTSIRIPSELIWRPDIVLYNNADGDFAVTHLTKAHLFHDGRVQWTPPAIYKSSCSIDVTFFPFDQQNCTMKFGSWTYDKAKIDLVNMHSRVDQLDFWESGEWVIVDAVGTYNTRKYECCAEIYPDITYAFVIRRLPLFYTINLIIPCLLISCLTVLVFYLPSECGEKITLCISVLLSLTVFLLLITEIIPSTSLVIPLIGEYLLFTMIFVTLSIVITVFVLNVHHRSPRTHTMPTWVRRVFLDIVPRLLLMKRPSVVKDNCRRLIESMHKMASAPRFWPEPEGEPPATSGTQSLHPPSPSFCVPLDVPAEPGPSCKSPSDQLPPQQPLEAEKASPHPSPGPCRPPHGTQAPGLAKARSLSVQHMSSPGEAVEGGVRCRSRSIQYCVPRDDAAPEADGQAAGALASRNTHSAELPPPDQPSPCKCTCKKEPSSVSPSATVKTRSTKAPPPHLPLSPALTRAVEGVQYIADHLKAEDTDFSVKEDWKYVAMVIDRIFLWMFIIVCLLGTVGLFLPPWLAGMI
T1 sequence (P17787 26-502): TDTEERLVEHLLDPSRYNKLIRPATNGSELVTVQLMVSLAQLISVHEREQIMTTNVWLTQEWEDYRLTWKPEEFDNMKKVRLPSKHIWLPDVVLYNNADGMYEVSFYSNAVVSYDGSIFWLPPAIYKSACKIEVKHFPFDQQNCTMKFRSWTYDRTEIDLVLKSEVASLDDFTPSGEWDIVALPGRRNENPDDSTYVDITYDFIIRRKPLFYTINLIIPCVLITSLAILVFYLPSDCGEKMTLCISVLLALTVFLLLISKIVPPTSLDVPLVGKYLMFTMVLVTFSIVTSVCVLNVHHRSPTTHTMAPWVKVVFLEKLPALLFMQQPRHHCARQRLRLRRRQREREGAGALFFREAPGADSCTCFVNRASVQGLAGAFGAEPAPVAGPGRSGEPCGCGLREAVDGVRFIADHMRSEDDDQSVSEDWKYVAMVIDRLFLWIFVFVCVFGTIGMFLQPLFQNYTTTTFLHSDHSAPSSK
Protocol: • Acetylcholine chloride • 100 mM stock solution in bi-distilled water 1.3 Test system • Apparatus: Automated Injection and Recording Apparatus, HiQScreen • Species of donor animals: Xenopus • Strain of animals: Laevis • Origin (supplier) of animals: HiQScreen Sàrl, Geneva • Body Weight of animals: 150 g to 300 g • Animal maintenance 3 to 5 per vivarium • Room temperature: 20-22° C. • Lighting times: Vivarium were exposed to daylight with additional artificial lighting (6 am-8 pm in summer; 8 am-7 pm in winter). • Food: Food pellets, ad libitum • Source of biological material • and isolation procedure: Abdominal incision to remove ovaries • Experimental conditions in Oocyte incubation: Barth solution containing in mM NaCl 88, • vitro: […] OR2 medium containing in mM: […] Two-electrode voltage clamp, using proprietary automated system equipped with a Geneclamp amplifier (Axon Instrument, Foster City, Calif., USA), or HiClamp (Multichannel Systems, Germany) Abbreviations: Ach, Acetylcholine; nAChR, Nicotinic acetylcholine receptor; SEM, Standard error of the mean; PAM, Positive allosteric modulator All experiments were carried out at human nAChRs expressed in Xenopus oocytes using the method of cDNA expression. Xenopus oocytes were prepared and injected using standard procedures. Briefly, ovaries were harvested from Xenopus Laevis females that have been deeply anesthetized by cooling at 4° C. and Tricaine methanesulfonate (MS-222 at a concentration of 150 mg/L) in sodium bicarbonate (300 mg/L). Once anesthetized the animal was decapitated and pithed following the rules of animal rights from the Geneva canton. […] All recordings were performed at 18° C. and cells superfused with OR2 medium containing in mM: […] Currents evoked by ACh or other agonists were recorded using an automated process equipped with standard two-electrode voltage-clamp configuration (TEVC). Data were captured and analyzed using a HiQScreen proprietary data acquisition and analysis software running under Matlab (Mathworks Inc.). […] Compounds were dissolved in OR2 as stock solution (1 mM) and the final dilution to the desired concentration was made on the day of the experiment. Injections of cDNAs encoding for the human alpha4beta2, were performed in at least 95 oocytes were performed using a proprietary automated injection device (Hogg et al., J. Neurosci. Methods, 2008) and receptor expression examined at least two days later. Oocytes were poked with two electrodes and their membrane potential maintained, unless indicated, at −80 mV throughout the experiment. A protocol to determine the allosteric modulation at the alpha4beta2 nAChRs in the oocytes expressing the receptor was developed. Oocytes expressing alpha4beta2 nAChRs were exposed to increasing concentrations of ACh while the response was evaluated. This was repeated with the addition of a fixed concentration of the allosteric modulator. The current evoked from the exposure to the agonist with the modulator was recorded and compared to currents evoked in the absence of the modulator. To assess the effects of positive allosteric modulators (Br-PBTC and NS-9283) a protocol of determination of the concentration activation curve in absence and presence of the PAM was designed. […] To assess the positive allosteric modulator effects of NS-9283 at the compound 1 hemi-galactarate dihydrate the same experimental protocol was conducted using 1 μM of the modulator. […] To further evaluate the PAM effects, the modulation was measured either as a first application and compared versus the subsequent agonist evoked response or, vice versa, by first exposing the cell to the agonist alone and then to the PAM and the agonist applied during a sustained PAM exposure. […] The same experiment was then conducted for compound 1 hemi-galactarate dihydrate as the agonist and Br-PBTC as the modulator or NS-9283 as the modulator.

[2] = target: T1, human alpha4beta2 nAChRs; assay: Desensitization by sustained (1 hour) agonist exposure and recovery, without and with PAM, Xenopus oocytes (Example 1); settings: for effect of PAM on recovery from varenicline tartrate desensitization: 300 μM varenicline tartrate 1 hour, wash of 3 hours; for effect of PAM on recovery from varenicline tartrate desensitization / effect of PAM on amplitude of the current evoked by varenicline tartrate: 1 μM PAM; for effect of PAM on amplitude of the current evoked by varenicline tartrate: 300 μM varenicline tartrate; for effect of PAM on profile of compound 1 hemi-galactarate dihydrate desensitization and recovery: 1 mM agonist, co-application of 1 μM modulator
[3] = target: T2, human nAChR alpha3alpha5beta4 (Homo sapiens, UniProt P30532+P30926+P32297); assay: Agonist activity, two-electrode voltage clamp in Xenopus oocytes (Examples 2 and 5); settings: for agonist character: versus ACh response, mono-citrate
T2 construct: expressed in transfected cells; host or cells: Xenopus laevis oocytes (cDNA injection)
T2 sequence (P32297 32-505): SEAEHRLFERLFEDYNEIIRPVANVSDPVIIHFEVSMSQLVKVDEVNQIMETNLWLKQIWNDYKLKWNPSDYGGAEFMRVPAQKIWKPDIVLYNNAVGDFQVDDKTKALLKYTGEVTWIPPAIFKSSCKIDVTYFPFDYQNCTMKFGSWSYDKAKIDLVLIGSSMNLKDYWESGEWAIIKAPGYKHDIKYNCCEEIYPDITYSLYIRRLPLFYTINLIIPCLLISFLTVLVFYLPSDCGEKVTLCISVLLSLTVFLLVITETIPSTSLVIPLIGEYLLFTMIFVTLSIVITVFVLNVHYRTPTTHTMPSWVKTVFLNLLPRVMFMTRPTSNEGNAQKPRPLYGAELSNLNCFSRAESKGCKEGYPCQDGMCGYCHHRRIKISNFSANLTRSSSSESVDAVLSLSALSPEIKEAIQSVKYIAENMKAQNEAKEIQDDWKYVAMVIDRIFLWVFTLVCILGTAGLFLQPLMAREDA
T2 sequence (P30532 23-468): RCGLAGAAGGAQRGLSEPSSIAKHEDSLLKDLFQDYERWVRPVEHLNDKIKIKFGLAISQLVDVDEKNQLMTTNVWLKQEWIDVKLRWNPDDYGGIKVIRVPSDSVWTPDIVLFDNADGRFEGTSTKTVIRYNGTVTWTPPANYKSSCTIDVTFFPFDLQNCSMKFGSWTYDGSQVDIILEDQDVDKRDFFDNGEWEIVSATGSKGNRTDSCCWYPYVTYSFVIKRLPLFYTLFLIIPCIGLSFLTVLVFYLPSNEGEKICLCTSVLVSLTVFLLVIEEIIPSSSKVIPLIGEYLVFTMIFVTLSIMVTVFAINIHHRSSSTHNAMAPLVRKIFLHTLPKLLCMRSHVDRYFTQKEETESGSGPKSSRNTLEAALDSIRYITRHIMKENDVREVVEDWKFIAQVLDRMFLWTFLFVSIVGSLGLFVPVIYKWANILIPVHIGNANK
T2 sequence (P30926 22-498): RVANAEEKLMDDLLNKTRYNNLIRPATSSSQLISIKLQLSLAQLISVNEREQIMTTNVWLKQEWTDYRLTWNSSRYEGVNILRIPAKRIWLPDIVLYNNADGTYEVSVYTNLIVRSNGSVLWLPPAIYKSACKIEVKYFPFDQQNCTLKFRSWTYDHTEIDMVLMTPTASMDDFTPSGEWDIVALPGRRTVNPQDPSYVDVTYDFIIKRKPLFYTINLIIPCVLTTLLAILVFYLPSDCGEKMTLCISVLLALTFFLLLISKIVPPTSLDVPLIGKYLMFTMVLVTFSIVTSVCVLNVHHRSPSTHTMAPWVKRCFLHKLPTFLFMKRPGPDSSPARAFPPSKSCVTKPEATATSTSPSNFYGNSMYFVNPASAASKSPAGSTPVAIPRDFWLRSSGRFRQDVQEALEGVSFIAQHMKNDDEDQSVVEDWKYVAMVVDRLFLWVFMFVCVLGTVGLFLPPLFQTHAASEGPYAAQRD
Protocol: (§1) All experiments were carried out at human nAChRs expressed in Xenopus oocytes using the method of cDNA expression. Xenopus oocytes were prepared and injected using standard procedures.
(§2) Briefly, ovaries were harvested from Xenopus Laevis females that have been deeply anesthetized by cooling at 4° C. and Tricaine methanesulfonate (MS-222 at a concentration of 150 mg/L) in sodium bicarbonate (300 mg/L). Once anesthetized the animal was decapitated and pithed following the rules of animal rights from the Geneva canton. A small piece of ovary was isolated for immediate preparation while the remaining part was placed at 4° C. in a sterile Barth solution containing in mM NaCl 88, KCl 1, NaHCO32.4, HEPES 10, MgSO4.7H2O 0.82, Ca(NO3)2.4H2O 0.33, CaCl2.6H2O 0.41, at pH 7.4, and supplemented with 20 μg/ml of kanamycin, 100 unit/ml penicillin. All recordings were performed at 18° C. and cells superfused with OR2 medium containing in mM: NaCl 88, KCl 2.5, HEPES 5, CaCl2.2H2O 1.8, MgCl2.6H2O 1, pH 7.4.
(§3) Currents evoked by ACh or other agonists were recorded using an automated process equipped with standard two-electrode voltage-clamp configuration (TEVC). Data were captured and analyzed using a HiQScreen proprietary data acquisition and analysis software running under Matlab (Mathworks Inc.).
(§4) See Example 1. […] The test concentration of acetylcholine chloride was 1280 micromolar.
(§5) Injections of cDNAs encoding for the human alpha3beta4, alpha3alpha5beta4, alpha4beta2, and alpha7 were performed in at least 95 oocytes were performed using a proprietary automated injection and receptor expression examined at least two days later. Oocytes were poked with two electrodes and their membrane potential maintained, unless indicated, at −80 mV throughout the experiment.
(§6) A protocol to determine agonistic activity in the oocytes expressing the nAChRs was developed. The cells were exposed to a series of increasing concentrations of a compound agonist for 10 seconds each at two minute intervals. The current evoked from exposure to the agonist at each concentration was recorded. For oocytes expressing alpha7 nAChRs, exposure to the agonist was reduced to 5 seconds. This process was repeated for each agonist tested against each type of nAChR expressing cell.
(§7) To evaluate the agonistic properties of compound 1 hemi-galactarate dihydrate a protocol of brief exposures to a series of growing concentrations of compound 1 hemi-galactarate dihydrate was used.
(§8) Agonist Preparation: See Example 1. […] The test concentration of acetylcholine chloride was 1280 micromolar.
(§9) Experimental Procedures: Injections of cDNAs encoding for the human alpha3beta4, alpha3alpha5beta4, alpha4beta2, alpha4alpha6beta2, and alpha7 were performed in at least 95 oocytes using a proprietary automated injection device. Cellular receptor expression was examined at least two days later. Oocytes were poked with two electrodes and their membrane potential maintained, unless indicated, at −80 mV throughout the experiment.
as §6, with “developed. Oocytes expressing a nAChR subtype were exposed to a brief test pulse of acetylcholine (1280 micromolar) while the holding current and response was evaluated. Cells displaying robust currents were washed for 90 seconds.” for “developed.”, “were then” for “were”, “nAChR” for “compound”, “intervals. The nAChR agonist test concentrations were 0.1, 0.3, 1, 3, 10, 30, 100, 300 (micromolar).” for “intervals.”

[4] = target: T3, human nAChR alpha3beta4 (Homo sapiens, UniProt P30926+P32297); assay: as above; settings: for agonist character: versus ACh response, mono-citrate
T3 construct: expressed in transfected cells; host or cells: Xenopus laevis oocytes (cDNA injection)
T3 sequence (P32297 32-505): as the sequence (P32297 32-505) above
T3 sequence (P30926 22-498): as the sequence (P30926 22-498) above
Protocol: as §1, §2, §3, §4, §5, §6, §7, §8, §9
as §6, with “developed. Oocytes expressing a nAChR subtype were exposed to a brief test pulse of acetylcholine (1280 micromolar) while the holding current and response was evaluated. Cells displaying robust currents were washed for 90 seconds.” for “developed.”, “were then” for “were”, “nAChR” for “compound”, “intervals. The nAChR agonist test concentrations were 0.1, 0.3, 1, 3, 10, 30, 100, 300 (micromolar).” for “intervals.”

[5] = target: T4, human nAChR alpha4beta2 (Homo sapiens, UniProt P17787+P43681); assay: as above; settings: for agonist character: versus ACh response
T4 construct: expressed in transfected cells; host or cells: Xenopus laevis oocytes (cDNA injection)
T4 sequence (P43681 29-627 limits assumed): as the sequence (P43681 29-627 limits assumed) above
T4 sequence (P17787 26-502): as the sequence (P17787 26-502) above
Protocol: as §1, §2, §3, §4, §5, §6, §7, §8, §9
as §6, with “developed. Oocytes expressing a nAChR subtype were exposed to a brief test pulse of acetylcholine (1280 micromolar) while the holding current and response was evaluated. Cells displaying robust currents were washed for 90 seconds.” for “developed.”, “were then” for “were”, “nAChR” for “compound”, “intervals. The nAChR agonist test concentrations were 0.1, 0.3, 1, 3, 10, 30, 100, 300 (micromolar).” for “intervals.”

[6] = target: T5, human nAChR alpha7 (Homo sapiens, UniProt P36544); assay: as above; settings: for percent of the maximal ACh-evoked current: at 300 μM (300 micromolar) agonist; for percent of the maximal ACh-evoked current / agonist character: mono-citrate; for agonist character: versus ACh response
T5 construct: expressed in transfected cells; host or cells: Xenopus laevis oocytes (cDNA injection)
T5 sequence (P36544 23-502): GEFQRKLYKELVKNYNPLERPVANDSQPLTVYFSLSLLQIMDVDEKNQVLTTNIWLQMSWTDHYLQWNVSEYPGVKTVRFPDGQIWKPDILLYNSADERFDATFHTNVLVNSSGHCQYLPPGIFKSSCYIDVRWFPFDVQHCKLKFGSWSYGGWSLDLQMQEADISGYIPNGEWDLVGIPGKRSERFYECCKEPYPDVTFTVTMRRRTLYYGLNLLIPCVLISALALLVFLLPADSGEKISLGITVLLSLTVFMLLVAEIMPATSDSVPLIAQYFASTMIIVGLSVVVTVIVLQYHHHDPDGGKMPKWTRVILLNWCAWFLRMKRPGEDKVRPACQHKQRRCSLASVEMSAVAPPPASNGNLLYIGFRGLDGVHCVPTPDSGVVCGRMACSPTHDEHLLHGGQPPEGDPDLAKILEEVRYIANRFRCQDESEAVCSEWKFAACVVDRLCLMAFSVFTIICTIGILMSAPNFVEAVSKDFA
Protocol: as §1, §2, §3, §4, §5, §6, §7, §8, §9
as §6, with “developed. Oocytes expressing a nAChR subtype were exposed to a brief test pulse of acetylcholine (1280 micromolar) while the holding current and response was evaluated. Cells displaying robust currents were washed for 90 seconds.” for “developed.”, “were then” for “were”, “nAChR” for “compound”, “intervals. The nAChR agonist test concentrations were 0.1, 0.3, 1, 3, 10, 30, 100, 300 (micromolar).” for “intervals.”

[7] = target: T6, human nAChR alpha4alpha6beta2 (Homo sapiens, UniProt P17787+P43681+Q15825); assay: Agonist activity, two-electrode voltage clamp in Xenopus oocytes (Example 5); settings: for agonist character: versus ACh response, mono-citrate
T6 construct: expressed in transfected cells; host or cells: Xenopus laevis oocytes (cDNA injection)
T6 sequence (P43681 29-627 limits assumed): as the sequence (P43681 29-627 limits assumed) above
T6 sequence (Q15825 26-494): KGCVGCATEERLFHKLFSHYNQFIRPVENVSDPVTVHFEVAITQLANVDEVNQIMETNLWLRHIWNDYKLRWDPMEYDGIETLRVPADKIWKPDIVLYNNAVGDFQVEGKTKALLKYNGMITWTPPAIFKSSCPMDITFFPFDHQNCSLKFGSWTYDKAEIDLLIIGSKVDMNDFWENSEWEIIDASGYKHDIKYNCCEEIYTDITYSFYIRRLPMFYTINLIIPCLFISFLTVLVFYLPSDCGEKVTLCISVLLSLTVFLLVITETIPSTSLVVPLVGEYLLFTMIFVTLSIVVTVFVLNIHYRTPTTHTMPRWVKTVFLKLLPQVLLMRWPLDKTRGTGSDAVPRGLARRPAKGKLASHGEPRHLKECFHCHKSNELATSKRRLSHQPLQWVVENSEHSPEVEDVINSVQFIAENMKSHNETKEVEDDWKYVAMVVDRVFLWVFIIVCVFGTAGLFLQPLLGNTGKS
T6 sequence (P17787 26-502): as the sequence (P17787 26-502) above
Protocol: as §1, §2, §3, §8, §9
as §6, with “developed. Oocytes expressing a nAChR subtype were exposed to a brief test pulse of acetylcholine (1280 micromolar) while the holding current and response was evaluated. Cells displaying robust currents were washed for 90 seconds.” for “developed.”, “were then” for “were”, “nAChR” for “compound”, “intervals. The nAChR agonist test concentrations were 0.1, 0.3, 1, 3, 10, 30, 100, 300 (micromolar).” for “intervals.”

O=C(N[C@@H]1CCCNC1)c1cc2cccc(Br)c2s1 [Br-PBTC, (R)-7-bromo-N-(piperidin-3-yl)benzo[b]thiophene-2-carboxamide]
positive allosteric modulator activity in the presence of compound 1 hemi-galactarate dihydrate [1]: acts as a positive modulator; also recorded: potentiate the agonistic activity | dependence of potentiation on the order of agonist and PAM application [1]: independent on the exposure protocol | maximal current evoked by compound 1 hemi-galactarate dihydrate [1]: increase of the maximal evoked current; also recorded: increase of the amplitude of the current | shift of the concentration activation curve to compound 1 hemi-galactarate dihydrate [1]: significant shift to the left; also recorded: shifted to the left | effect of PAM on recovery from varenicline tartrate desensitization [2]: almost complete recovery within 3 hours; also recorded: almost full recovery; also recorded: partially reversed | effect of PAM on amplitude of the current evoked by varenicline tartrate [2]: largely enhanced | effect of PAM on profile of compound 1 hemi-galactarate dihydrate desensitization and recovery [2]: minimal effect

N#Cc1cccc(-c2nc(-c3cccnc3)no2)c1 [NS-9283, 3-[3-(3-Pyridinyl)-1,2,4-oxadiazol-5-yl]benzonitrile]
positive allosteric modulator activity in the presence of compound 1 hemi-galactarate dihydrate [1]: acts as a positive allosteric modulator; also recorded: potentiate the agonistic activity | dependence of potentiation on the order of agonist and PAM application [1]: independent on the exposure protocol | maximal current evoked by compound 1 hemi-galactarate dihydrate [1]: no significant increase | shift of the concentration activation curve to compound 1 hemi-galactarate dihydrate [1]: significant shift to the left | effect of PAM on recovery from varenicline tartrate desensitization [2]: failed to significantly modify the recovery time course | effect of PAM on amplitude of the current evoked by varenicline tartrate [2]: enhanced the response | effect of PAM on profile of compound 1 hemi-galactarate dihydrate desensitization and recovery [2]: minimal effect

C(=C\[C@H]1CCNC1)/c1cncnc1 [compound 1 citrate, (R)-5-((E)-2-pyrrolidin-3-ylvinyl)pyrimidine mono-citrate]
EC50 ([3]; Example 5, read-out: EC50): 83 ± 9.05 µM | agonist character ([3]; listed as Compound 1 citrate): almost as a full agonist | agonist character [3]: almost full agonist | EC50 ([4]; read-out: EC50): 34.9 ± 4.53 µM | agonist character ([4]; listed as Compound 1 citrate): almost as a full agonist | agonist character [4]: almost full agonist | EC50 ([5]; Example 5, read-out: EC50): 13.5 ± 2.06 µM | effect on the subsequent ACh-evoked current ([5]; after exposure to the agonist concentration series, mono-citrate): Significant inhibition | agonist character ([5]; listed as Compound 1 citrate, mono-citrate): almost as a full agonist | agonist character ([5]; mono-citrate): almost full agonist | fraction of the maximal ACh-evoked current ([6]; 300 micromolar concentration): 25% | EC50 ([6]; Example 5, only an estimation): 126 ± 28.5 µM | percent of the maximal ACh-evoked current ([6]; listed as Compound 1 citrate): 25% | percent of the maximal ACh-evoked current [6]: 25% | agonist character ([6]; listed as Compound 1 citrate): poor agonist | agonist character [6]: weak partial agonist | EC50 [7]: 13.1 ± 3.68 µM | agonist character ([7]; listed as Compound 1 citrate): almost as a full agonist | agonist character [7]: almost full agonist
